Measured values as given in US10683286B2, “Furazan-3-carboxylic acid derivatives and use thereof in treatment of cancer” (FREIE UNIVERSITAET BERLIN, priority 2016, dated 2020).

Assays:
[1] = target: full length human STAT3 protein (Homo sapiens, UniProt P40763); assay: FP specificity assay, STAT3; type: binding; conditions: concentrations up to 1 mM
Source text: Cell Lines and Culture Condition

STAT5b-SH2 domain = target: T1, STAT5b-SH2 domain (Homo sapiens, UniProt P51692); assay: Competitive fluorescence polarization (FP) assay, STAT5b-SH2 domain
T1 sequence (P51692 136-703): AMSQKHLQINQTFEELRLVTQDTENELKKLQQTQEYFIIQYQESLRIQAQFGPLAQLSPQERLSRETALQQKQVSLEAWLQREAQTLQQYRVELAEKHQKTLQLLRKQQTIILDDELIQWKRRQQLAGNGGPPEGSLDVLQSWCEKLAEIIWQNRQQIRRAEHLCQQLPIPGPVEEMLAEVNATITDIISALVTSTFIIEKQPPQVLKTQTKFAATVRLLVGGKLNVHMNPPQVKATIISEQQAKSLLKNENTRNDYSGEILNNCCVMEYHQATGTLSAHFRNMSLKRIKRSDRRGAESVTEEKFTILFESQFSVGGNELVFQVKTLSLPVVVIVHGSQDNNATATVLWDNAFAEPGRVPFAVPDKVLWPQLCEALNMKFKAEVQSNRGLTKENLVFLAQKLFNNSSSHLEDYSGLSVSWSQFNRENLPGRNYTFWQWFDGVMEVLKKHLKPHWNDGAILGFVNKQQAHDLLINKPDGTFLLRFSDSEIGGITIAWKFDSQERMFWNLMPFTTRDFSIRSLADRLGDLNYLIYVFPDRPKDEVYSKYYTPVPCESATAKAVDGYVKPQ
Method: The ChemBioNet fragment collection composed in accordance with the substructure composition of the World Drug Index (WDI) was screened both for enhancing and inhibiting fragments of the phosphopeptide-STAT5 interaction.
The clone for Stat5b expression was kindly provided by Thorsten Berg (MPI, Martinsried). Expression of that truncated version of Stat5b (aa 136-703) cloned into a modified pQE70, with N-terminal MBP-tag and C-terminal His-tag was conducted on autoinduction medium (overnight express/Novagen). Cells were grown to an optical density (O.D.) of 0.3 at 37° C., then the temperature was reduced to 20° C. for further 48 h of expression. […] The protein was purified by Ni-chelating chromatography followed by gel filtration (Superdex 200/10 mM HEPES pH 7.8, 100 mM NaCl, 1 mM EDTA, 1 mM DTT, 10% glycerol). A yield of 15 mg MBP-Stat5b-His per liter of culture was obtained and aliquots (200 μl of 3.2 mg/ml) were quick-frozen and stored at −80° C., ready for use.
17000 compounds from the (FMP) ChemBioNet library were tested in a competitive-based fluorescence polarization (FP) assay to investigate the ability of compounds to bind to STAT5b-SH2 domain by displacing respective fluorophore-labeled peptides (5-carboxyfluorescein-GY (PO3H2) LSLPPW-NH2). The peptide purity was >95% and the screening were performed at room temperature. The final concentration of buffer components used was 10 mM HEPES (pH 7.5), 1 mM EDTA, 0.1% Igepal CA-630, 50 mM NaCl, and 5% DMSO. The final concentration of protein used was at 65 nM which correspond to the dissociation constants (Kd) for the individual protein-peptide interactions in assay buffer. The protein was first added to the black 384 well plate (Corning 3676) followed by test compounds and fluorophore-labeled peptide. The plates were centrifuged, and measured using Safire^2 well plate reader (Tecan, Crailsheim, Germany) after 15 minutes incubation at room temperature. […] For the analysis of the data GraphPad Prism 5 was used. Ligand efficiencies (LE) were calculated using equation derived as followed. LE=−ΔG°/HA with (ΔG°) is the standard free energy of binding in KJ and HA is the number of non-hydrogen atoms.

[2] = system: phosphorylated STAT5 dimers; assay: ELISA-based STAT5 transcription factor assay of (STAT5)2-DNA complexes; type: biochemical, murine; conditions: cell-free, nuclear extract incubated 1 h at room temperature
Method: As an additional confirmation for the mode of action of the STAT5-binding fragments, we finally investigated their potential to interfere directly with the binding of phosphorylated STAT5 dimers to the target DNA sequences of the transcription factor. […] (FIGS. 6C, D) Nuclear extracts and cytoplasmic extracts were prepared from BaF3 FLT3-ITD cells using the Nuclear Extraction kit (Active Motif, Carlsbad, Calif., USA) according to the manufacturer's protocol. STAT5 activity was determined in nuclear protein extracts (20 μg) by the TransAM STATs family kits from Active Motif (Carlsbad, Calif.). All assays were performed following the manufactory instruction after the nuclear protein extraction.

STAT5 dimer = assay: Gel shift assay (EMSA) of STAT5 DNA binding; type: biochemical, murine; conditions: BaF3/FLT3-ITD nuclear extract
Method: Nuclear extracts and cytoplasmic extracts were prepared from BaF3 FLT3-ITD cells using the Nuclear Extraction kit (Active Motif, Carlsbad, Calif., USA) according to the manufacturer's protocol.
A gel shift assay was conducted using a double-stranded, biotin-labeled oligonucleotide probe containing the consensus binding site for STAT5 (sense strand, 5′-[…]-3′), using the Gelshift Chemiluminescent EMSA kit (Active Motif) according to the manufacturer's protocol. Protein-DNA complexes were resolved on a nondenaturing polyacrylamide gel, transferred to a positively charged nylon membrane, and cross-linked to a membrane using the UV-light cross-linker. After blocking, the membrane was incubated with blocking buffer containing streptavidin conjugated to HRP. After washing, protein-DNA complexes were detected using a chemi-luminescent substrate (Active Motif).

[3] = target: T2, protein tyrosine phosphatase SHP2 (Homo sapiens, UniProt Q06124); assay: SHP2 inhibition (specificity); type: biochemical; conditions: concentrations up to 1 mM
T2 sequence (Q06124 1-593): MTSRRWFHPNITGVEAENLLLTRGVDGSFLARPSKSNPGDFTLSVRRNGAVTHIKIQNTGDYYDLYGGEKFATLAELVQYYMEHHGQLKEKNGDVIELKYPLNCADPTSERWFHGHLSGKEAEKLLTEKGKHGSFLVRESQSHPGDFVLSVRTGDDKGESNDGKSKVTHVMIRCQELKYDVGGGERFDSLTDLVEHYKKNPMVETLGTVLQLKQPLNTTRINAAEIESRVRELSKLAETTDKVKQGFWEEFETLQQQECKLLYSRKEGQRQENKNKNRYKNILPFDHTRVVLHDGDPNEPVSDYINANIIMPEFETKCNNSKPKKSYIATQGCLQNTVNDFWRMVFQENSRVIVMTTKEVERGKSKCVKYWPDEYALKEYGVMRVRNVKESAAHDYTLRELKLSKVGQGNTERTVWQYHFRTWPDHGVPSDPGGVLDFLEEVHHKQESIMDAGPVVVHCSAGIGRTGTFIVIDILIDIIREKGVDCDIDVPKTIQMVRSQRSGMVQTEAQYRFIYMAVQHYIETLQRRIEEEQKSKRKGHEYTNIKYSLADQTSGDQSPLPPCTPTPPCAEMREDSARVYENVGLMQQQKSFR

Sequence of full length human STAT3 protein (P40763 whole entry): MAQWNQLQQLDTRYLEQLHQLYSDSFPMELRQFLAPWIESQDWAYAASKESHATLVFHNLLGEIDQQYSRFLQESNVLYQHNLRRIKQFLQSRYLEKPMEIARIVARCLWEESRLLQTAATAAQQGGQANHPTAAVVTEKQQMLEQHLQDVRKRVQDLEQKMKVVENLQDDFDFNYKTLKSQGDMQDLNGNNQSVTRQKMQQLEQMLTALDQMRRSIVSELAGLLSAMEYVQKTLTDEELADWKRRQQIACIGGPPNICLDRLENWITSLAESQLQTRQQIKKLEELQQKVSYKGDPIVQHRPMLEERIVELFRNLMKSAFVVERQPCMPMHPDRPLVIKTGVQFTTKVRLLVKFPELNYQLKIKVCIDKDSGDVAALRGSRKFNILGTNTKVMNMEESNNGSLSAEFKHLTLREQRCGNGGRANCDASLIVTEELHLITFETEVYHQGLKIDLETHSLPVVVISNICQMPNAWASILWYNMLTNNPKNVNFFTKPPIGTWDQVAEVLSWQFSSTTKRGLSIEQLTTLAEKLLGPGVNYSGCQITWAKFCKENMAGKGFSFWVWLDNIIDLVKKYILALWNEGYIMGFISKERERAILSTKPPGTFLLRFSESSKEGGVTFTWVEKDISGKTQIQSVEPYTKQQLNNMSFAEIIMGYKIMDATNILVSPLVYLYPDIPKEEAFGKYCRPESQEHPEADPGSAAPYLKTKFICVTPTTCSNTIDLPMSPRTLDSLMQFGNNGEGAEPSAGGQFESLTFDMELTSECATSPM

- binding to the SH2 domain of STAT3 [1]: no binding
- Ki (STAT5b-SH2 domain): 1400 ± 500 nM
- ligand efficiency (STAT5b-SH2 domain): 2.23 kJ/mol per non-hydrogen atom
- LE (STAT5b-SH2 domain; Table 1, ligand efficiency): 2.23 kJ/mol* atom#
- STAT5 dimer DNA-binding activity (STAT5 dimer): inhibits
- inhibition of SHP2 [3]: No inhibition
Compound: O=C(O)c1nonc1NCn1cnnn1 [Compound 3, 4-((1H-Tetrazol-1-yl)-methylamino)-furazan-3-carboxylic Acid]
- inhibition of protein-dimer-DNA complex formation [2]: more potent inhibitor than compounds (15) and (6)
